In ChEMBL document CHEMBL1149776, “Synthesis and biological evaluation of some thiazolyl and thiadiazolyl derivatives of 1H-pyrazole as anti-inflammatory antimicrobial agents” (Eur J Med Chem, 2008):
≈ marks a conversion by molar mass, not a printed value.

Legend:
Staphylococcus aureus = test: Antimicrobial activity against Staphylococcus aureus ATCC 19433; format: functional
Candida albicans = test: Antimicrobial activity against Candida albicans; format: functional
Rattus norvegicus [1] = species on record: Rattus norvegicus; test: Antiinflammatory activity in Sprague-Dawley rat cotton pellet-induced granuloma model; format: functional
Escherichia coli = test: Antimicrobial activity against Escherichia coli ATCC 25922; format: functional
Rattus norvegicus [2] = test: Gastrointestinal toxicity in albino rat assessed as ulcerogenic effect at 30 umol/kg, po for 3 days; format: organism-based; settings: in vivo, 72 h
Rattus norvegicus [3] = test: Antiinflammatory activity in albino rat assessed as protection against carrageenan-induced paw edema at 10 umol/kg, sc administered 1 hr prior to carrageenan challenge relative to indomethacin; format: functional
Mus musculus [4] = test: Toxicity in parenterally dosed mouse upto 65 mg/kg assessed as mortality upto 7 days; format: organism-based; parameters: dose 65 mg/kg; settings: in vivo, 168 h
[5] = target: Prostaglandin G/H synthase 1 (Homo sapiens, UniProt P23219); test: Inhibition of human platelet COX1
Mus musculus [6] = test: Toxicity in mouse upto 40 mg/kg, po assessed as mortality after 24 hrs; format: organism-based; parameters: dose 40 mg/kg, route oral; settings: in vivo

Sequence of Prostaglandin G/H synthase 1 (P23219 whole entry): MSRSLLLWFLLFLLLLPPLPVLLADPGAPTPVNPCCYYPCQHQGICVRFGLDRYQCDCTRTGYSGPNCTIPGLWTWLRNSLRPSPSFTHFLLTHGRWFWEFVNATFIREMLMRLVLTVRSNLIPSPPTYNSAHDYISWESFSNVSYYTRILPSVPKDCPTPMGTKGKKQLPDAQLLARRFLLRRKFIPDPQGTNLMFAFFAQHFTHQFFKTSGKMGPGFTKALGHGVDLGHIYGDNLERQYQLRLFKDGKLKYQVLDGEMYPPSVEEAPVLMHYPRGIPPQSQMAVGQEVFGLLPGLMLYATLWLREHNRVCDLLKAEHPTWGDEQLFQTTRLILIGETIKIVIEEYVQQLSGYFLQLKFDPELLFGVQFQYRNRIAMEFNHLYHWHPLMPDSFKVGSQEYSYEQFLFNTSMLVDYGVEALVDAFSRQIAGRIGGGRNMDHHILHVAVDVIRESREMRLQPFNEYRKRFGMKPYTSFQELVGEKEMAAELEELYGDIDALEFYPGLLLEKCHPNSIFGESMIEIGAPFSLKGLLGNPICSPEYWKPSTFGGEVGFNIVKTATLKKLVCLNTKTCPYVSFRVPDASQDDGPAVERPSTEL

| Compound | MIC (Staphylococcus aureus) [µg/mL] | MIC (Candida albicans) [µg/mL] | MIC (Escherichia coli) [µg/mL] | ED50 (Rattus norvegicus [1]) [µmol] | Activity (Rattus norvegicus [2]) [%] | Activity (Rattus norvegicus [3]) [%] | Activity (Mus musculus [4]) | IC50 [5] [µmol] | Activity (Mus musculus [6]) |
| --- | --- | --- | --- | --- | --- | --- | --- | --- | --- |
| CC1(C)S[C@@H]2[C@H](NC(=O)[C@H](N)c3ccccc3)C(=O)N2[C@H]1C(=O)O [AMPICILLIN] | 12.5 (≈ 35.8 µM) |  | 25 (≈ 71.5 µM) |  |  |  |  |  |  |
| CN(C)/C=N/S(=O)(=O)c1ccc(-n2cc(/C=N\N=C3/SCC(=O)N3c3ccc(Cl)cc3)c(-c3ccccc3)n2)cc1 | 25 (≈ 41.2 µM) | > 200 | 100 (≈ 165 µM) | 9.12 | 10 | 104.16 | Non-toxic | > 100 | Non-toxic |
| CN(C)/C=N/S(=O)(=O)c1ccc(-n2cc(/C=N\N=c3/scc(-c4ccc(Br)cc4)n3-c3ccc(Cl)cc3)c(-c3ccccc3)n2)cc1 | 100 (≈ 134 µM) | 50 (≈ 67.1 µM) | 100 (≈ 134 µM) | 9.56 | 0 |  | Non-toxic |  | Non-toxic |
| CN(C)/C=N/S(=O)(=O)c1ccc(-n2cc(/C=N\N=c3/scc(-c4ccc(Br)cc4)n3-c3ccccc3)c(-c3ccccc3)n2)cc1 | 25 (≈ 35.2 µM) | > 200 | 25 (≈ 35.2 µM) | 12.96 | 0 |  |  |  |  |
| Cc1ccc(N2C(=O)CS/C2=N\N=C/c2cn(-c3ccc(S(=O)(=O)/N=C/N(C)C)cc3)nc2-c2ccccc2)cc1 | 100 (≈ 171 µM) | 100 (≈ 171 µM) | 25 (≈ 42.7 µM) | 9.34 | 20 | 98.65 | Non-toxic | 87.12 | Non-toxic |
| Cc1ccc(-n2c(-c3ccc(Br)cc3)cs/c2=N\N=C/c2cn(-c3ccc(S(=O)(=O)/N=C/N(C)C)cc3)nc2-c2ccccc2)cc1 | 50 (≈ 69 µM) | 100 (≈ 138 µM) | 50 (≈ 69 µM) | 11.06 | 0 | 94.46 |  | 96.25 |  |
| COc1ccc2c(c1)c(CC(=O)O)c(C)n2C(=O)c1ccc(Cl)cc1 [INDOMETHACIN] |  |  |  | 9.58 | 100 |  |  |  |  |

Further lines, with some results ahead:

| MIC (Staphylococcus aureus) [µg/mL] | MIC (Candida albicans) [µg/mL] | MIC (Escherichia coli) [µg/mL] | Compound | ED50 (Rattus norvegicus [1]) [µmol] | Activity (Rattus norvegicus [2]) [%] | Activity (Rattus norvegicus [3]) [%] | Activity (Mus musculus [4]) | IC50 [5] [µmol] | Activity (Mus musculus [6]) |
| --- | --- | --- | --- | --- | --- | --- | --- | --- | --- |
| 100 (≈ 177 µM) | > 200 | 100 (≈ 177 µM) | CN(C)/C=N/S(=O)(=O)c1ccc(-n2cc(-c3nnc(Nc4ccc(Cl)cc4)s3)c(-c3ccccc3)n2)cc1 | 11.88 | 10 |  |  |  |  |
| 25 (≈ 46 µM) | > 200 | 100 (≈ 184 µM) | Cc1ccc(Nc2nnc(-c3cn(-c4ccc(S(=O)(=O)/N=C/N(C)C)cc4)nc3-c3ccccc3)s2)cc1 | 12.46 | 10 |  |  |  |  |
| > 200 | 50 (≈ 81.2 µM) | 50 (≈ 81.2 µM) | CC(=O)N(C1=NN(C(C)=O)C(c2cn(-c3ccc(S(=O)(=O)/N=C/N(C)C)cc3)nc2-c2ccccc2)S1)c1ccccc1 (stereo unspecified) | 12.54 | 20 |  |  |  |  |
| 100 (≈ 159 µM) | 25 (≈ 39.7 µM) | 50 (≈ 79.4 µM) | CC(=O)N(C1=NN(C(C)=O)C(c2cn(-c3ccc(S(=O)(=O)/N=C/N(C)C)cc3)nc2-c2ccccc2)S1)c1ccc(C)cc1 (stereo unspecified) | 14.86 | 10 |  |  |  |  |
| 25 (≈ 43.7 µM) | 100 (≈ 175 µM) | 50 (≈ 87.5 µM) | CN(C)/C=N/S(=O)(=O)c1ccc(-n2cc(/C=N\N=C3/SCC(=O)N3c3ccccc3)c(-c3ccccc3)n2)cc1 | 13.36 | 10 |  |  |  |  |
| > 200 | 25 (≈ 38.5 µM) | 50 (≈ 76.9 µM) | CC(=O)N(C1=NN(C(C)=O)C(c2cn(-c3ccc(S(=O)(=O)/N=C/N(C)C)cc3)nc2-c2ccccc2)S1)c1ccc(Cl)cc1 (stereo unspecified) | 13.96 | 10 |  |  |  |  |
| > 200 | 100 (≈ 189 µM) | 100 (≈ 189 µM) | CN(C)/C=N/S(=O)(=O)c1ccc(-n2cc(-c3nnc(Nc4ccccc4)s3)c(-c3ccccc3)n2)cc1 | 11.38 | 0 |  |  |  |  |
